The numbers were not newly measured in patent publication US11618772B2 (Kineta Chronic Pain, LLC, priority 2014, dated 2023), which cites them from elsewhere.

The target of the data set is T1, α9α10 nAChR (Rattus norvegicus, UniProt P43144+Q9JLB5).
T1 construct: host or cells: oocytes
The conditions noted are these: cited from earlier work.

T1 sequence (P43144 26-479 limits assumed): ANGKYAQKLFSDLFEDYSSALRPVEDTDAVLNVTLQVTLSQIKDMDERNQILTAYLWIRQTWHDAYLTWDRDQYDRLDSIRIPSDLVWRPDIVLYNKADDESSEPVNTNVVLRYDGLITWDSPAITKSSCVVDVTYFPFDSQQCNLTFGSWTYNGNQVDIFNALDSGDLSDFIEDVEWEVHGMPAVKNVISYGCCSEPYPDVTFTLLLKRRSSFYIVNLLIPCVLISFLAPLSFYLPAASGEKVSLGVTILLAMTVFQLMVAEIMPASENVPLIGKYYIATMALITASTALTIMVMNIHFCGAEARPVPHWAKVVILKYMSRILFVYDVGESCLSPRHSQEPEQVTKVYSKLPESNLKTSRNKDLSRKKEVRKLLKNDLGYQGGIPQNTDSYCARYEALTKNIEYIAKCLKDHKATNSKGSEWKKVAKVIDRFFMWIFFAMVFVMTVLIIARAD
T1 sequence (Q9JLB5 25-447 limits assumed): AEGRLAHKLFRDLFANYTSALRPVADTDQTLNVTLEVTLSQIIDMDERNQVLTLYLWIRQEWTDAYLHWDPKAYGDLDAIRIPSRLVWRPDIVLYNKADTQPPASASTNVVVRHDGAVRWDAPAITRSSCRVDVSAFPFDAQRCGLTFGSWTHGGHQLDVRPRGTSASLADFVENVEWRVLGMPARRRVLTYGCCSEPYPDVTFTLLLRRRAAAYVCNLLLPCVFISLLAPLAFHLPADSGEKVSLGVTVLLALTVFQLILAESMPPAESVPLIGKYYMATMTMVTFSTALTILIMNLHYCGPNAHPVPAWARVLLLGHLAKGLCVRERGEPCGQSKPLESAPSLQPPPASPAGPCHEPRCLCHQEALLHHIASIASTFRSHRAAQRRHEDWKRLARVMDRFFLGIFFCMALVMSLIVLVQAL

With GCCSDPRCRYRCR [RgIA], the “block of α9α10 nAChR” value is on record as “block α9α10 nAChR”.
